# Experimental data from patent publication US20070219203A1, “Arylalkylamino-substituted quinazoline analogues” (Neurogen Corporation, priority 2004, published 2007).
# Biological target: T1, human capsaicin receptor (Homo sapiens, UniProt Q8NER1)
# T1 construct: expressed in transfected cells
# Assay: Calcium mobilization assay, antagonist activity (Example 6)
# Format: cell-based
# Details: Table II; 50% decrease in fluorescence response of cells expressing human capsaicin receptor exposed to capsaicin
# Procedure, shortened: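 Stable HEK293 clones expressing full-length human receptor, loaded with Fluo-3 in KRH buffer pH 7.4. Test compounds at 1 μM to 5 μM final preincubated 0.5 to 6 hours at room temperature, then challenged with capsaicin at its EC50; IC50 is 50% decrease in FLIPR calcium response.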
# T1 sequence (Q8NER1 whole entry): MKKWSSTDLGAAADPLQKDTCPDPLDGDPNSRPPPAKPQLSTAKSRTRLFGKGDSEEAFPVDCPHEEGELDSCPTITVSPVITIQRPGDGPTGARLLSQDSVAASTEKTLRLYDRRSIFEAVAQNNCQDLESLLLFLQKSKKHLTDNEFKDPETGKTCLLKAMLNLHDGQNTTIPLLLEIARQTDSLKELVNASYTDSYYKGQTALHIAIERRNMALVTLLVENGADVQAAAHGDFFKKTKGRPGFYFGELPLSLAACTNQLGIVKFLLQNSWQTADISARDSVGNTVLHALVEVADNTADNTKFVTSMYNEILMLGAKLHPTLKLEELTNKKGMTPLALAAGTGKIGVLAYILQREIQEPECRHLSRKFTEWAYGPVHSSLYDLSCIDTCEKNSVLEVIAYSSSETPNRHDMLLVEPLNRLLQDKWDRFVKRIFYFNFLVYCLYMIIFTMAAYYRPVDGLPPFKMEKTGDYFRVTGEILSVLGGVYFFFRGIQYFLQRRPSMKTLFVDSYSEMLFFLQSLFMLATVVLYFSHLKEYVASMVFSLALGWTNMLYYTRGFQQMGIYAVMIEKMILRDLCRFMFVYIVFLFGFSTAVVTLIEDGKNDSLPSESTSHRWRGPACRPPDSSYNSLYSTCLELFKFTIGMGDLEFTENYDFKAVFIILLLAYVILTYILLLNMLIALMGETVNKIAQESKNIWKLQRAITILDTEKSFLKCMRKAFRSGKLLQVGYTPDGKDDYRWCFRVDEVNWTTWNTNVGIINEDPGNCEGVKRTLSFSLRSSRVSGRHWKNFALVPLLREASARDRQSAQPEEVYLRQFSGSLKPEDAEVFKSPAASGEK
row,IC50,Structure (SMILES)
1,≤ 1000 nM,"C=C(C)CN(CC)Cc1nc(NCCc2ccccc2C)c2ccc(-c3ncccc3C(F)(F)F)cc2n1 [Compound 155, [2-{[Ethyl-(2-methyl-allyl)-amino]-methyl}-7-(3-trifluoromethyl-pyridin-2-yl)-quinazolin-4-yl]-(2-o-tolyl-ethyl)-amine]"
2,≤ 1000 nM,"Cc1ccccc1CCNc1nc(CN(C)C2CCCCC2)nc2cc(-c3ncccc3C(F)(F)F)ccc12 [Compound 158, [2-[(Cyclohexyl-methyl-amino)-methyl]-7-(3-trifluoromethyl-pyridin-2-yl)-quinazolin-4-yl]-(2-o-tolyl-ethyl)-amine]"
3,≤ 1000 nM,"CC1CC(C)CN(Cc2nc(NCCc3ccccc3)c3ccc(-c4ncccc4C(F)(F)F)cc3n2)C1 (stereo not drawn) [Compound 176, [2-(3,5-Dimethyl-piperidin-1-ylmethyl)-7-(3-trifluoromethyl-pyridin-2-yl)-quinazolin-4-yl]-phenethyl-amine]"
4,≤ 1000 nM,"Cc1ccccc1CCNc1nc(CN2CC(C)CC(C)C2)nc2cc(-c3ncccc3C(F)(F)F)ccc12 (stereo not drawn) [Compound 177, [2-(3,5-Dimethyl-piperidin-1-ylmethyl)-7-(3-trifluoromethyl-pyridin-2-Yl)-quinazolin-4-yl]-(2-o-tolyl-ethyl)-amine]"
5,≤ 1000 nM,"CC1CC(C)CN(Cc2nc(NCCc3ccccc3Cl)c3ccc(-c4ncccc4C(F)(F)F)cc3n2)C1 (stereo not drawn) [Compound 178, [2-(2-Chloro-phenyl)-ethYl]-[2-(3,5-dimethyl-piperidin-1-ylmethyl)-7-(3-trifluoromethyl-pyridin-2-yl)-quinazolin-4-yl]-amine]"

# Second part, the compound before the results:
row,Structure (SMILES),IC50
1,"CCN(Cc1nc(NCCc2ccccc2C)c2ccc(-c3ncccc3C(F)(F)F)cc2n1)C1CCCCC1 [Compound 164, [2-[(Cyclohexyl-ethyl amino)-methyl]-7-(3-trifluoromethyl-pyridin-2-yl)-quinazolin-4-yl]-(2-o-tolyl-ethyl)-amine]",≤ 1000 nM
2,"COCCN(CCOC)Cc1nc(NCCc2ccccc2C)c2ccc(-c3ncccc3C(F)(F)F)cc2n1 [Compound 168, [2-{[Bis-(2-methoxy-ethyl)-amino]-methyl}-7-(3 trifluoromethyl-pyridin-2-yl)-quinazolin-4-yl]-(2-o-tolyl-ethyl)-amine]",≤ 1000 nM
3,"CCCCCN(CCCCC)Cc1nc(NCCc2ccccc2C)c2ccc(-c3ncccc3C(F)(F)F)cc2n1 [Compound 171, [2-Dipentylaminomethyl-7-(3-trifluoromethyl-pyridin-2-yl)-quinazolin-4-yl]-(2-o-tolyl-ethyl)-amine]",≤ 1000 nM
4,"CCCCCN(CCCCC)Cc1nc(NCCc2ccccc2Cl)c2ccc(-c3ncccc3C(F)(F)F)cc2n1 [Compound 172, [2-(2-Chloro-phenyl)-ethyl]-[2-dipentylaminomethyl-7-(3-trifluoromethyl-pyridin-2-yl)-quinazolin-4-yl]-amine]",≤ 1000 nM
5,"CCCCCCN(CCCCCC)Cc1nc(NCCc2ccccc2)c2ccc(-c3ncccc3C(F)(F)F)cc2n1 [Compound 173, [2-Dihexylaminomethyl-7-(3-trifluoromethyl-pyridin-2-yl)-quinazolin-4-yl]-phenethyl-amine]",≤ 1000 nM
6,"CCCCCCN(CCCCCC)Cc1nc(NCCc2ccccc2C)c2ccc(-c3ncccc3C(F)(F)F)cc2n1 [Compound 174, [2-Dihexylaminomethyl-7-(3-trifluoromethyl-pyridin-2-yl)-quinazolin-4-yl]-(2-o-tolyl-ethyl)-amine]",≤ 1000 nM
7,"CCCCCCN(CCCCCC)Cc1nc(NCCc2ccccc2Cl)c2ccc(-c3ncccc3C(F)(F)F)cc2n1 [Compound 175, [2-(2-Chloro-phenyl)-ethyl]-[2-dihexylaminomethyl-7-(3-trifluoromethyl-pyridin-2-yl)-quinazolin-4-yl]-amine]",≤ 1000 nM
